Data set [1] has as its system UGT. Briefly: UGT reaction phenotyping, all the UGTs combined. The data set is classed as in vitro ADME, Human. From the text: Experimental Summary: UGT Reaction Phenotyping (7 Isoforms).
In data set [2] the test system is cryopreserved hepatocytes. Briefly: Hepatocyte stability and metabolite profiling. To be noted: rat hepatocyte samples. The data set is classed as in vitro ADME, rat. The procedure: (§1) The objective of this study was to investigate the stability of the test compound, CBG, in human, rat, dog, mouse, monkey and minipig cryopreserved hepatocytes. Follow-on metabolite profiling was performed.
(§2) CBG was incubated up to 2 hr with cryopreserved hepatocytes. Cryopreserved hepatocytes in suspension were added to test compound in supplemented media following pre-incubation to initiate the reaction and the reactions were stopped by organic solvent at the appropriate time points. The termination plates were centrifuged and sample supernatants were analysed using Cyprotex generic LC MS/MS conditions to generate intrinsic clearance values for CBG. Two control compounds for each species were included in the assay and if the values for these compounds were not within the specified limits the results were rejected and the experiment repeated.
(§3) Following the hepatocyte stability assay the samples were 59tilized for metabolite profiling using suitable high-resolution LC-MS/MS conditions. The 40 and 60 minute human samples, 20 and 120 minute rat samples, 10 and 20 minute dog and monkey samples, 20 and 60 minute mouse samples, and 40 and 120 minute minipig samples were compared against the 0 minute control sample to establish which and how many metabolites were formed. […] No further analysis was carried out with the mouse species.
(§4) The areas and percentages reported for the parent and metabolites were calculated using the XIC data. Metabolite observed at greater than 1% of the total of drug related material are reported. […] For accuracy, a ppm error of less than 5 is desirable; when the response for a metabolite observed is low the ppm error maybe greater than 5. Where a metabolite has been referred to as a potential oxidation it can refer to a potential hydroxylation, epoxidation or oxide formation. Representative collision induced dissociation (CID) mass spectra were obtained for the metabolites found.

The nature of data set [3]: Hepatocyte stability and metabolite profiling. The data set is classed as in vitro ADME, rat. To be noted: cryopreserved hepatocytes in suspension; Rat cryopreserved hepatocytes. The procedure: as §1, §2, §3, §4
Data set [4] in a line: Quantification of CBG and CBG glucuronide in rat plasma (LC-MS/MS). In kind it is in vivo, Sprague-Dawley rat. As for the experimental part:
The purpose of this study was to quantify cannabigerol (CBG) in rat plasma and brain.
Seven- to nine-week-old male and female Sprague-Dawley received either a single dose or once daily dosing for 21 days of vehicle or CBG at three different dosage levels as shown in the Table below.
Approximately 0.2-0.25 mL blood was collected during the first 24 hours after the single dose, and at multiple times points after the terminal dose for the animals receiving daily dosing for 21 days. Liver, kidney, and colon samples were collected and fixed in 10% NBF for 48 hours, then stored in 70% ethanol at room temperature. Brain samples were collected and flash frozen.
Analytical curves were constructed using non-zero standards with CBG concentration ranging from 0.0025 to 2.500 μg/mL and 2.500-100.0 μg/mL in blank rat plasma samples and 1.0 to 2500 ng/mL in blank brain tissues. A blank sample was used to exclude contamination.
Instrument Used: AB SCIEX QTRAP 4500/Shimadzu Prominence LC

Data set [5] has as its system cryopreserved hepatocytes. Briefly: Hepatocyte stability and metabolite profiling. The data set is classed as in vitro ADME, monkey. To be noted: monkey hepatocyte samples. The procedure: as §1, §2, §3, §4
Data set [6] is described as follows: Hepatocyte stability and metabolite profiling. In kind it is in vitro ADME, monkey. To be noted: cryopreserved hepatocytes in suspension; Monkey cryopreserved hepatocytes. The procedure: as §1, §2, §3, §4

The structures appear in SMILES notation. Read-outs that look alike come from different tables or passages of the source.

Turning to `CCCCCc1cc(O)c(C/C=C(\C)CCC=C(C)C)c(OC)c1` [Compound 1, (E)-2-(3,7-dimethylocta-2,6-dien-1-yl)-3-methoxy-5-pentylphenol], in data set [1], the “Total UGT activity relative to that observed with CBG” value is reported as 23%; the “share of total UGT activity associated with UGT1A9 and UGT2B7” value came to 73%.
As to `CCCCCc1cc(O)c(C/C=C(\C)CCC=C(C)C)c(O)c1` [CBG, cannabigerol], the “number of metabolites observed” value in data set [2] is listed as “eight”; in data set [5], “four”. Also, the half-life in data set [3] came out at 49 min; in data set [6], 11.3 min. Further, the values for the hepatocyte CLint in data set [3] and in data set [6] were 28.3 µL/min/1e6 cells and 122 µL/min/1e6 cells, respectively. Further, the “CBG concentration in rat plasma (Day 21)” value was “BLQ (BLQ—Below Limit of Quantification (2.5 ng/ml))” in data set [4] (CBG 10 mg/kg oral gavage once daily, 15 min post Rx); “BLQ (BLQ—Below Limit of Quantification (2.5 ng/ml))” in data set [4] (CBG 10 mg/kg oral gavage once daily, 30 min post Rx); “BLQ (BLQ—Below Limit of Quantification (2.5 ng/ml))” in data set [4] (CBG 10 mg/kg oral gavage once daily, 24 hr post Rx); “BLQ (BLQ—Below Limit of Quantification (2.5 ng/ml))” in data set [4] (CBG 30 mg/kg oral gavage once daily, 30 min post Rx); “BLQ (BLQ—Below Limit of Quantification (2.5 ng/ml))” in data set [4] (CBG 30 mg/kg oral gavage once daily, 1 hr post Rx); “BLQ (BLQ—Below Limit of Quantification (2.5 ng/ml))” in data set [4] (CBG 30 mg/kg oral gavage once daily, 2 hr post Rx). The “CBG concentration in rat plasma (Day 21)” value in data set [4] (CBG 30 mg/kg oral gavage once daily, 4 hr post Rx) is “BLQ (BLQ—Below Limit of Quantification (2.5 ng/ml))”; in data set [4] (CBG 30 mg/kg oral gavage once daily, 8 hr post Rx) it was “BLQ (BLQ—Below Limit of Quantification (2.5 ng/ml))”; in data set [4] (CBG 30 mg/kg oral gavage once daily, 24 hr post Rx) it was “BLQ (BLQ—Below Limit of Quantification (2.5 ng/ml))”; in data set [4] (CBG 100 mg/kg oral gavage once daily, 24 hr post Rx) it was “BLQ (BLQ—Below Limit of Quantification (2.5 ng/ml))”. The “CBG concentration in rat plasma (Day 1)” value is reported as “BLQ (BLQ—Below Limit of Quantification (2.5 ng/ml))” in data set [4] (CBG 10 mg/kg oral gavage once, 15 min post Rx); “BLQ (BLQ—Below Limit of Quantification (2.5 ng/ml))” in data set [4] (CBG 10 mg/kg oral gavage once, 30 min post Rx); “BLQ (BLQ—Below Limit of Quantification (2.5 ng/ml))” in data set [4] (CBG 10 mg/kg oral gavage once, 4 hr post Rx); “BLQ (BLQ—Below Limit of Quantification (2.5 ng/ml))” in data set [4] (CBG 10 mg/kg oral gavage once, 8 hr post Rx); “BLQ (BLQ—Below Limit of Quantification (2.5 ng/ml))” in data set [4] (CBG 10 mg/kg oral gavage once, 24 hr post Rx); “BLQ (BLQ—Below Limit of Quantification (2.5 ng/ml))” in data set [4] (CBG 30 mg/kg oral gavage once, 8 hr post Rx). Besides, the “CBG concentration in rat plasma (Day 1)” value in data set [4] (CBG 100 mg/kg oral gavage once, 15 min post Rx) was “BLQ (BLQ—Below Limit of Quantification (2.5 ng/ml))”; in data set [4] (CBG 100 mg/kg oral gavage once, 30 min post Rx), “BLQ (BLQ—Below Limit of Quantification (2.5 ng/ml))”; in data set [4] (CBG 100 mg/kg oral gavage once, 1 hr post Rx), “BLQ (BLQ—Below Limit of Quantification (2.5 ng/ml))”; in data set [4] (CBG 100 mg/kg oral gavage once, 2 hr post Rx) it was “BLQ (BLQ—Below Limit of Quantification (2.5 ng/ml))”; in data set [4] (CBG 100 mg/kg oral gavage once, 8 hr post Rx) it was “BLQ (BLQ—Below Limit of Quantification (2.5 ng/ml))”; in data set [4] (CBG 100 mg/kg oral gavage once, 24 hr post Rx) it was “BLQ (BLQ—Below Limit of Quantification (2.5 ng/ml))”. The concentration at 1 h in data set [4] (both sexes, Sprague-Dawley, rat, plasma, oral, 10 mg/kg, CBG 10 mg/kg oral gavage once daily, 1 hr post Rx, read-out: CBG concentration in rat plasma (Day 21)) was 1.67 ng/mL; in data set [4] (both sexes, Sprague-Dawley, rat, plasma, oral, 100 mg/kg, CBG 100 mg/kg oral gavage once daily, 1 hr post Rx, read-out: CBG concentration in rat plasma (Day 21)), 226 ng/mL. The concentration at 4 h in data set [4] (both sexes, Sprague-Dawley, rat, plasma, oral, 10 mg/kg, CBG 10 mg/kg oral gavage once daily, 4 hr post Rx, read-out: CBG concentration in rat plasma (Day 21)) was 4.73 ng/mL; in data set [4] (both sexes, Sprague-Dawley, rat, plasma, oral, 100 mg/kg, CBG 100 mg/kg oral gavage once, 4 hr post Rx, read-out: CBG concentration in rat plasma (Day 1)), 119 ng/mL. Further, in data set [4] (both sexes, Sprague-Dawley, rat, plasma, oral, 10 mg/kg, CBG 10 mg/kg oral gavage once daily, 8 hr post Rx, read-out: CBG concentration in rat plasma (Day 21)), the concentration at 8 h was determined as 2.55 ng/mL. In addition, the concentration at 2 h in data set [4] (both sexes, Sprague-Dawley, rat, plasma, oral, 10 mg/kg, CBG 10 mg/kg oral gavage once, 2 hr post Rx, read-out: CBG concentration in rat plasma (Day 1)) amounted to 12 ng/mL; in data set [4] (both sexes, Sprague-Dawley, rat, plasma, oral, 100 mg/kg, CBG 100 mg/kg oral gavage once daily, 2 hr post Rx, read-out: CBG concentration in rat plasma (Day 21)) it was 307 ng/mL. For the same compound, the concentration at 15 min in data set [4] (both sexes, Sprague-Dawley, rat, plasma, oral, 30 mg/kg, CBG 30 mg/kg oral gavage once, 15 min post Rx, read-out: CBG concentration in rat plasma (Day 1)) amounted to 3.8 ng/mL; in data set [4] (both sexes, Sprague-Dawley, rat, plasma, oral, 100 mg/kg, CBG 100 mg/kg oral gavage once daily, 15 min post Rx, read-out: CBG concentration in rat plasma (Day 21)), 41.6 ng/mL. Moreover, the concentration at 30 min in data set [4] (both sexes, Sprague-Dawley, rat, plasma, oral, 30 mg/kg, CBG 30 mg/kg oral gavage once, 30 min post Rx, read-out: CBG concentration in rat plasma (Day 1)) came out at 15.2 ng/mL; in data set [4] (both sexes, Sprague-Dawley, rat, plasma, oral, 100 mg/kg, CBG 100 mg/kg oral gavage once daily, 30 min post Rx, read-out: CBG concentration in rat plasma (Day 21)), 178 ng/mL. Further, in data set [4] (both sexes, Sprague-Dawley, rat, plasma, oral, 30 mg/kg, CBG 30 mg/kg oral gavage once, 24 hr post Rx, read-out: CBG concentration in rat plasma (Day 1)), the concentration at 24 h is 2.75 ng/mL. Moreover, in data set [4] (oral CBG 10-100 mg/kg, Days 1 and 21), the “concentration of CBG in plasma (in words)” value is “low or below the level of quantitation (BLQ)”. Further, the “first pass metabolism to the glucuronide upon oral administration (in words)” value in data set [4] (oral CBG, rat) is recorded as “very high first pass metabolism to the glucuronide”.

The half-life is how long it takes for the measured level to halve. By hepatocyte CLint is commonly meant the rate of metabolic loss divided by the concentration.

The values above are taken from US11992497B2 (priority 2021, dated 2024).
